The target in data set [1] is T1, CYP2A6*1 (wild-type) (Homo sapiens, UniProt P11509).
T1 construct: made in house; host or cells: E. coli (membrane fractions; pCW-CYP2A6*1 co-expressed with pACYC-OxR)
T1 sequence (P11509 1-494): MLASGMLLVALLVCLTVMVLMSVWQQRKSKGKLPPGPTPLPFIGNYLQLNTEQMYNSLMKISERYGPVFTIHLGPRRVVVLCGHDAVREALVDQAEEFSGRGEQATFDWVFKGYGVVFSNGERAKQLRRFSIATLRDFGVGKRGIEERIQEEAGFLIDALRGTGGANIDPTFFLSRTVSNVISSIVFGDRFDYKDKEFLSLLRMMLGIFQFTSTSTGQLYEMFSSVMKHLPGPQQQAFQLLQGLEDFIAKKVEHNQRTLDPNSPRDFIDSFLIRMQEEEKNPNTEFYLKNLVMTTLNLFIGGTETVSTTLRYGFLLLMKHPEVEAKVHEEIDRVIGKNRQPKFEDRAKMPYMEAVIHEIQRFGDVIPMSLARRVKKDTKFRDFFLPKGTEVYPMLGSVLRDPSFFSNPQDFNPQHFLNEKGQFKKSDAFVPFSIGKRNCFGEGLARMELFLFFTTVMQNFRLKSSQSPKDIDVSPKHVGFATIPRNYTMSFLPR
On the set-up: method as in PMID 20139165. Conditions: coumarin 7-hydroxylation, mean ± SD n=3; cited from earlier work.

Data set [2] addresses T2, CYP2A6*15 (Homo sapiens, UniProt P11509, K194E).
T2 construct: made in house; host or cells: E. coli (membrane fractions; pCW-CYP2A6*15 co-expressed with pACYC-OxR)
T2 sequence (P11509 1-494 K194E): T1 sequence (P11509 1-494) with K194E
Also on record: method as in PMID 20139165. Conditions: coumarin 7-hydroxylation, mean ± SD n=3; cited from earlier work.

Data set [3] has as its target T3, CYP2A6*16 (Homo sapiens, UniProt P11509, R203S).
T3 construct: made in house; host or cells: E. coli (membrane fractions; pCW-CYP2A6*16 co-expressed with pACYC-OxR)
T3 sequence (P11509 1-494 R203S): T1 sequence (P11509 1-494) with R203S
Also on record: method as in PMID 20139165. To be noted: coumarin 7-hydroxylation, mean ± SD n=3; cited from earlier work.

For data set [4], the target named is T4, CYP2A6*21 (Homo sapiens, UniProt P11509, K476R).
T4 construct: made in house; host or cells: E. coli (membrane fractions; pCW-CYP2A6*21 co-expressed with pACYC-OxR)
T4 sequence (P11509 1-494 K476R): T1 sequence (P11509 1-494) with K476R
Also on record: method as in PMID 20139165. Conditions: coumarin 7-hydroxylation, mean ± SD n=3; cited from earlier work.

In data set [5] the target is T5, CYP2A6*22 (Homo sapiens, UniProt P11509, D158E/L160I).
T5 construct: made in house; host or cells: E. coli (membrane fractions; pCW-CYP2A6*22 co-expressed with pACYC-OxR)
T5 sequence (P11509 1-494 D158E/L160I): T1 sequence (P11509 1-494) with D158E, L160I
On the set-up: method as in PMID 20139165. To be noted: coumarin 7-hydroxylation, mean ± SD n=3; cited from earlier work.

Data set [6] concerns CYP2A6 K476E. On the set-up: method as in PMID 16207711. To be noted: towards coumarin; cited from earlier work.
The target in data set [7] is T1, CYP2A6*1 (wild-type). As to the kind of experiment: CYP2A6 inactivation assay (fluorescence-based coumarin 7-hydroxylase assay). The format is biochemical. Conditions: pH 7.4, probe coumarin (10 µM; 7-hydroxylation), 8-MOP 1.0 µM, 10 min pre-incubation with NADPH generating system vs no pre-incubation, read-out: increased percentage in inhibition with pre-incubation. The source says: (§1) A fully functional P450 monooxygenase system requires collaboration of the CYP of interest in concert with the essential coenzyme, NADPH-CYP oxidoreductase (OxR). Here, we co-expressed the individual CYP2A6 plasmid constructs – pCW-CYP2A6, pCW-CYP2A6*15, pCW-CYP2A6*16, pCW-CYP2A6*21 or pCW-CYP2A6*22, with pACYC-OxR plasmid which allowed for OxR co-expression that was important for CYP2A6 catalytic function. Preparation of membrane fragments expressing holoenzyme protein of respective CYP2A6 construct was in accordance to the established method described previously. Membrane fractions were stored at −80°C in a 1∶1 mixture of pH 7.6 TES (100 mM Tris/0.5 mM EDTA/500 mM sucrose buffer) and ice-cold distilled water before use.
(§2) Assessment of coumarin 7-hydroxylation is a signature marker for CYP2A6 metabolic assay. To evaluate the inhibitory potency of 8-MOP on the kinetic activity of CYP2A6 variants, we adopted a fluorescence-based coumarin 7-hydroxylase assay upon minor modifications of an established protocol, [13]. […] NADPH generating system (1 mM NADP, 10 mM G6P, 2IU G6PDH and 5 mM MgCl2) in 0.1 M phosphate buffer, pH 7.4 was added subsequently to the incubation mixture to initiate the reactions. […] Enzyme inhibition reactions were allowed in 25 minutes of incubation and later terminated by 500 mM Tris base. The experimental conditions were selected such that under conditions with varying activities of CYP2A6 proteins, no more than 20% of the substrate was converted to 7-hydroxycoumarin. The fluorescent metabolite was detected by Tecan Infinite™ 200 series microplate reader (Männerdorf, Switzerland) at excitation wavelength 365 nm and emission wavelength 450 nm and further estimated based on the standard curve of 7-hydroxycoumarin which was constructed in the range of 15.63–2000 pmol/well previously (data not shown). Current assay also included control for fluorescent interference which consisted of inhibitor (at a concentration equal to the inhibition incubations) and bacterial control membranes.

Data set [8] has as its target T2, CYP2A6*15. The description is as above. The format is biochemical. Conditions: pH 7.4, probe coumarin (10 µM; 7-hydroxylation), 8-MOP 1.0 µM, 10 min pre-incubation with NADPH generating system vs no pre-incubation, read-out: increased percentage in inhibition with pre-incubation.
Excerpt: as §1, §2

The target in data set [9] is T3, CYP2A6*16. The description is as above. The format is biochemical. Conditions: pH 7.4, probe coumarin (10 µM; 7-hydroxylation), 8-MOP 1.0 µM, 10 min pre-incubation with NADPH generating system vs no pre-incubation, read-out: increased percentage in inhibition with pre-incubation.
Excerpt: as §1, §2

Data set [10] has as its target T4, CYP2A6*21. The description is as above. The format is biochemical. To be noted: pH 7.4, probe coumarin (10 µM; 7-hydroxylation), 8-MOP 1.0 µM, 10 min pre-incubation with NADPH generating system vs no pre-incubation, read-out: increased percentage in inhibition with pre-incubation.
Excerpt: as §1, §2

The target in data set [11] is T5, CYP2A6*22. Described as above. The data set is classed as biochemical. To be noted: pH 7.4, probe coumarin (10 µM; 7-hydroxylation), 8-MOP 1.0 µM, 10 min pre-incubation with NADPH generating system vs no pre-incubation, read-out: increased percentage in inhibition with pre-incubation.
Excerpt: as §1, §2

Residue numbers refer to the chain shown, from its start.

For `O=c1ccc2ccccc2o1` [coumarin], the Km in data set [1] was 10.6 ± 1.58 µM; in [2] it was 22.1 ± 1.29 µM; in [3] it was 10.5 ± 1.45 µM; in data set [4], 16.4 ± 0.41 µM; in data set [5] it was 31.2 ± 2.22 µM. For the same compound, in data set [6], the “catalytic efficiency, % of the wild type kcat/Km value” is reported as approximately 8%.
Take `COc1c2occc2cc2ccc(=O)oc12` [8-methoxypsoralen]: the inhibition at 35 min, 1 µM in data set [7] was 35%; in data set [8] it was 32%; in data set [9] it was 31%; in [10], 24%; in data set [11], 23%.

These data come from PMC3903516 (PLoS ONE, 2014).
